From ChEMBL document CHEMBL5465560, “Selectivity Literature for EUbOPEN Chemogenomic Library” (2024) come the findings set out here.

In test [1] the target is T1, Cyclin-G-associated kinase (Homo sapiens) (UniProt O14976).
T1 sequence (whole entry): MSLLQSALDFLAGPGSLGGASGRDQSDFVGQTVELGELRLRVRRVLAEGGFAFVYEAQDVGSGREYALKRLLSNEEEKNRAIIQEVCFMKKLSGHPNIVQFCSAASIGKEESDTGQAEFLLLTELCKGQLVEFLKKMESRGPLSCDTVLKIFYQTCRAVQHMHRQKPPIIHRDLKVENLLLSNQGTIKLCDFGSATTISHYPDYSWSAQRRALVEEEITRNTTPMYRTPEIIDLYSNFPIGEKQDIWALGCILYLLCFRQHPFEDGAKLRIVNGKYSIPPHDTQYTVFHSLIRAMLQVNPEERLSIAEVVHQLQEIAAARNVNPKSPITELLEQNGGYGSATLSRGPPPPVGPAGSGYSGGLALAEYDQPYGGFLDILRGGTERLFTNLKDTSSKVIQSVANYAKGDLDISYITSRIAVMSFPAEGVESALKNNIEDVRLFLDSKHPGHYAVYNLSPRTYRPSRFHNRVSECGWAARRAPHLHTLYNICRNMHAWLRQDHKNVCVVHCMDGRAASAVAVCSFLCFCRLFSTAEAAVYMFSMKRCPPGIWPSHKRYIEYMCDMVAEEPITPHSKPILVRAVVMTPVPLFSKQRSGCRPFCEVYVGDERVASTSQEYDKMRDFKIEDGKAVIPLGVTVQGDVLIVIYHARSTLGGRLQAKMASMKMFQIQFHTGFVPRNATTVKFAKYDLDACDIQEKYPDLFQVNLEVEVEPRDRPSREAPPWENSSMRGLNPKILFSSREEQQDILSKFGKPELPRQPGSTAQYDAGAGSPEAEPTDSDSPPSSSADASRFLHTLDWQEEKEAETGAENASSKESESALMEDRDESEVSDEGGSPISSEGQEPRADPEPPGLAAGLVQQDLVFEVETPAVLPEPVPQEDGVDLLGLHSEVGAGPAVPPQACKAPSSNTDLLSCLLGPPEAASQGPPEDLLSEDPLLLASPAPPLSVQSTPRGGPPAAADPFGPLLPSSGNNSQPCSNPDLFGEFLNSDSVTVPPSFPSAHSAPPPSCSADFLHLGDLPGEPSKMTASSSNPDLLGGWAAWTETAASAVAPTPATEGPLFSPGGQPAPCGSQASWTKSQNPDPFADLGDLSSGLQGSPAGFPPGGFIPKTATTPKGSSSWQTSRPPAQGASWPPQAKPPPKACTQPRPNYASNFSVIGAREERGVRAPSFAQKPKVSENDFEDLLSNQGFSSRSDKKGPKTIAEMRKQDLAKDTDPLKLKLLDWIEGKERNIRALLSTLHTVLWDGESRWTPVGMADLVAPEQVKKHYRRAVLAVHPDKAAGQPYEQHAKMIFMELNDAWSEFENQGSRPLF
Description: Selectivity interaction (KinomeScan (DiscoverX)) EUB0000607a GAK. The following applies: at 10 µM.

Test [2] concerns the target RAC-alpha serine/threonine-protein kinase (Homo sapiens, UniProt P31749). The following applies: at 10 µM.
Test [3] has as its target Ribosomal protein S6 kinase beta-1 (Homo sapiens, UniProt P23443). The experiment in a line: Selectivity interaction (ActivX KiNativ screen (kinase selectivity in THP-1 cell lysates)) EUB0000639a RPS6KB1. The following applies: lysate, at 5 µM. Type of test: subcellular.
In test [4] the target is Serine/threonine-protein kinase MRCK alpha (Homo sapiens) (UniProt Q5VT25). Description: Selectivity interaction (Kinase panel (DSF assay)) EUB0001559a CDC42BPA. (In general: In DSF a fluorescence change marks the thermal transition of the protein.)
Chain of Serine/threonine-protein kinase MRCK alpha (Homo sapiens) (Q5VT25 whole entry): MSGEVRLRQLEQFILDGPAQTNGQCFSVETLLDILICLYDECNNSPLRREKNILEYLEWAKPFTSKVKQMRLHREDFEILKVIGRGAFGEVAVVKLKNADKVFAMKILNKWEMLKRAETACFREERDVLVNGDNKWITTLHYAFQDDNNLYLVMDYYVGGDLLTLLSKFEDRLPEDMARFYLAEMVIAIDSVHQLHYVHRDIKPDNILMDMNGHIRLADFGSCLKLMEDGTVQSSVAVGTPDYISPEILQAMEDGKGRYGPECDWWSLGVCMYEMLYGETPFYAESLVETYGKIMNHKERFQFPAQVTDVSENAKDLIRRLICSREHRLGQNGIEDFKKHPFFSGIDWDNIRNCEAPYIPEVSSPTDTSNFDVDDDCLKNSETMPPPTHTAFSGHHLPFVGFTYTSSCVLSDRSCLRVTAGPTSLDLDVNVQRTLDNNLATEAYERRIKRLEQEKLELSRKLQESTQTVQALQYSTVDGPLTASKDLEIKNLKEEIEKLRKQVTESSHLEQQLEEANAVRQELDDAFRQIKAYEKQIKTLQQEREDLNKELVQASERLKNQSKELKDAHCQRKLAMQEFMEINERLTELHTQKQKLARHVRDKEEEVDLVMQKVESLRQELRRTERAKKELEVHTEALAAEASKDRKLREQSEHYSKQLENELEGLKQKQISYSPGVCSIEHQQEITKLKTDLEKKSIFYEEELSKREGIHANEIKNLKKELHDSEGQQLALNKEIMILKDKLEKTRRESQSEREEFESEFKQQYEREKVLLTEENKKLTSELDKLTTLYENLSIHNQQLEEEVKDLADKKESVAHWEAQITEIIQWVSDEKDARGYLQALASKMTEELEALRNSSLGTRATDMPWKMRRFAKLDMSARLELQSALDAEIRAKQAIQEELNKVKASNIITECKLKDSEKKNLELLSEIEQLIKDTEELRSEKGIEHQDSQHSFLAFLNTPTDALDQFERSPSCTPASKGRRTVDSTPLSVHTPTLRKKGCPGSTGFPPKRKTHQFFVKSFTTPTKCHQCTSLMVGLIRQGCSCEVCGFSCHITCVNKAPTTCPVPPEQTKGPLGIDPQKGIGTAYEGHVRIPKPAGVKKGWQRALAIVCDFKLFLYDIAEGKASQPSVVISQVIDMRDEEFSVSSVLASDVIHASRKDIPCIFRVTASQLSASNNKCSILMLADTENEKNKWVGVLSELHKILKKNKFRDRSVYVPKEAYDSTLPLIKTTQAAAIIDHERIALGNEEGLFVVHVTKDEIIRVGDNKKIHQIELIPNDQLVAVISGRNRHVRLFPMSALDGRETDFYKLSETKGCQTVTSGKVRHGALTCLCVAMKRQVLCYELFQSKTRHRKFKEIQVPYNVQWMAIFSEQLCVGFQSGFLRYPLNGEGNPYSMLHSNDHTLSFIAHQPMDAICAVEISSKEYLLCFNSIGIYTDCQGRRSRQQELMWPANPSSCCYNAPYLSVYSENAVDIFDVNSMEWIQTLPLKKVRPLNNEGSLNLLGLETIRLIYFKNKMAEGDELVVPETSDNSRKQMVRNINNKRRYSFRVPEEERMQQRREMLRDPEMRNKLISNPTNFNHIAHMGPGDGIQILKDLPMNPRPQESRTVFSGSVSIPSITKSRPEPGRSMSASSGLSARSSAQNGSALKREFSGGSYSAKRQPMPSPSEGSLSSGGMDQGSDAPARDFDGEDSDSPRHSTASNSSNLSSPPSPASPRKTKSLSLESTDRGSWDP
Test [5] addresses T2, Peregrin (Homo sapiens) (UniProt P55201).
T2 sequence (whole entry): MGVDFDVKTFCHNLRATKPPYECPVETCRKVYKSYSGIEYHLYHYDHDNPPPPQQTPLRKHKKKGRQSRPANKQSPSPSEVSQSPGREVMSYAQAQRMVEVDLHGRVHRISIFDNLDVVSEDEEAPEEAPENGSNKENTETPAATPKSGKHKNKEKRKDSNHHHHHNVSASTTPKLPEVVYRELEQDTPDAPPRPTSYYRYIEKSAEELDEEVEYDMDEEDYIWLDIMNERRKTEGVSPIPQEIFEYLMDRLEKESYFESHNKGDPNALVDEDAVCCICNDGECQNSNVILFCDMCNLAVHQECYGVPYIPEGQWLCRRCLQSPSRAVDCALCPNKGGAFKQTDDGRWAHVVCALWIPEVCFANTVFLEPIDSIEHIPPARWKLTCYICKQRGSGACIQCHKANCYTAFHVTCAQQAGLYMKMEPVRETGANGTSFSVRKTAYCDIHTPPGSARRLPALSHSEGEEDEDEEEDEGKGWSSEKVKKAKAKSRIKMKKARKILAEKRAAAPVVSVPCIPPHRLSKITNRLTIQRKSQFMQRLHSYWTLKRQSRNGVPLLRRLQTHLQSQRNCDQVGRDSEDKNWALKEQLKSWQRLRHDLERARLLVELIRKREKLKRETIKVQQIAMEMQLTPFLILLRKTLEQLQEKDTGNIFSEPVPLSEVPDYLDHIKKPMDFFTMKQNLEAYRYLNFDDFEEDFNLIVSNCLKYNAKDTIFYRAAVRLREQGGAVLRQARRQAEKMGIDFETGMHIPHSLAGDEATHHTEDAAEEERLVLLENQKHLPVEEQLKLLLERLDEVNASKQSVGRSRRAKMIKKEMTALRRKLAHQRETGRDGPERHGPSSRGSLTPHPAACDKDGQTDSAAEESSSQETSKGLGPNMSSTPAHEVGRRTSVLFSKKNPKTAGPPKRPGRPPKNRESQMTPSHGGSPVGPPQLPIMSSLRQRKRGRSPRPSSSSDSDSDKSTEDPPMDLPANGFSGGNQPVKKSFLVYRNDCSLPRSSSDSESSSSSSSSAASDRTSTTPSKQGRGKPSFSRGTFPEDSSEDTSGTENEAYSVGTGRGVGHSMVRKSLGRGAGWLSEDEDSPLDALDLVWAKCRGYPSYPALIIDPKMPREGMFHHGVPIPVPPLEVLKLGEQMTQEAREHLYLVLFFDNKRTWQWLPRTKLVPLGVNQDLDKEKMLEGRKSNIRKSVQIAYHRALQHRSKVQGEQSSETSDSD
The experiment in a line: Selectivity interaction (Bromodomain panel (DSF asssay)) EUB0000270b BRPF1.

Chain of RAC-alpha serine/threonine-protein kinase (P31749 whole entry): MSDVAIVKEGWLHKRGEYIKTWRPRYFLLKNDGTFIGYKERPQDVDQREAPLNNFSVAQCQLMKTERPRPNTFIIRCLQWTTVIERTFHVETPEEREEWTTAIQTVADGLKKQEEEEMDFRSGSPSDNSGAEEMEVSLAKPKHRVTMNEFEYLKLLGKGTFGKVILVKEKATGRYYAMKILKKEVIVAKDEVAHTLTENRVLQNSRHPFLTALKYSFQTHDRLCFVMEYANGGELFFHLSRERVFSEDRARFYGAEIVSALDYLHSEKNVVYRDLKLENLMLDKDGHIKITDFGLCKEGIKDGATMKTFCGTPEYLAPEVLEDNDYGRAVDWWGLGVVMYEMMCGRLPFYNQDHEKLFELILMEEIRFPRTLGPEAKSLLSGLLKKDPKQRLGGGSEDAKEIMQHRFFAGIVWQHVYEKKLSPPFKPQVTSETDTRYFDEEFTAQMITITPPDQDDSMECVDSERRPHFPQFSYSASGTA
Chain of Ribosomal protein S6 kinase beta-1 (P23443 whole entry, looked up): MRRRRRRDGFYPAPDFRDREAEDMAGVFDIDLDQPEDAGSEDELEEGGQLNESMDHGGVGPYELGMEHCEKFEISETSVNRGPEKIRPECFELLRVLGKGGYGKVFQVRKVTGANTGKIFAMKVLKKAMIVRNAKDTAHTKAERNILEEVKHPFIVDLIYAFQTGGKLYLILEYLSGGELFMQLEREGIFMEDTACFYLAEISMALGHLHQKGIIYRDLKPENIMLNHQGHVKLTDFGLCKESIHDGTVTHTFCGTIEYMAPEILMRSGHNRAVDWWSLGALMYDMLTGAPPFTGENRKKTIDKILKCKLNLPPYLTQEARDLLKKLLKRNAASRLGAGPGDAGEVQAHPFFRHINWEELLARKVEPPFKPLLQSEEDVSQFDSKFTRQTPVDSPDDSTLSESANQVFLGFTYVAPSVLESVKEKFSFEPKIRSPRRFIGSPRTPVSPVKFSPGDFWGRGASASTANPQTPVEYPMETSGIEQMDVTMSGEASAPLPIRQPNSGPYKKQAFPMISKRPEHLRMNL

Regarding `CNC(=O)Nc1ccc(-c2nc(N3CC4CCC(C3)O4)c3cnn(C4CCC5(CC4)OCCO5)c3n2)cc1`, in test [1], the % of control turned out to be 75%.
In the case of `Cc1cc([C@@H](C)Nc2ccccc2C(=O)O)c2nc(N3CCOCC3)cc(=O)n2c1` [AZD-6482], the % of control in test [2] was 100%.
In test [3], `CC[C@@H]1[C@H](F)C(=O)N[C@@H]1COc1nccc2cc(C(N)=O)c(OC)cc12` [ZIMLOVISERTIB] came in with a % of inhibition of 3.9%.
The compound `CN(C(=O)c1cnn2cccnc12)c1cc2c(cc1N1CCOCC1)C(=O)N(C[C@@H](F)C(C)(C)O)C2` yielded a dTM in test [4] of 0 K.
In the case of `Cc1cc(CN)cc(C)c1-c1ncn(C)c1-c1cncn1C`, the dTM in test [5] was -1.98 K.
